# Measurements published in US20210121426A1, “BLOOD PURIFICATION BY ALKALINIZING AGENT” (TOHOKU UNIVERSITY, priority 2017, published 2021).
# Marks after values point to notes of the source that are not given here.
# What was measured:
# [1] = Human clinical trial: urinary specific gravity of early morning urine (urine hydrometer); format: in vivo
# Experimental: (§1) 1. […] Patients were assigned to each group so that age, sex, presence of diabetes, and eGFR were not biased. Each group was treated according to the “CKD medical care guide-summary of treatment” (hereinafter referred to as standard treatment).
# (§2) An alkalinizing agent was not administered to the control group. […] A pH of early morning urine was controlled over time so that the dosage could be increased up to 6 tablets, 3 times a day (morning, noon, evening) as needed according to the discretion of the physician in cases where a pH of early morning urine was less than pH 6.5. To the group B, 3 tablets a day in which each tablet contained 500 mg of sodium bicarbonate were orally administered 3 times a day (morning, noon, evening) for 24 weeks. A pH of early morning urine was controlled over time so that the dosage could be increased up to 6 tablets, 3 times a day (morning, noon, evening) as needed according to the discretion of the physician in cases where a pH of early morning urine was less than pH 6.5.
# In addition, amounts of change in each urinary specific gravity after 6, 12, and 24 weeks after the start of the test are respectively shown as a % relative value with respect to each urinary specific gravity before the start of the test, and a difference from urinary specific gravity before the start of the teste in Tables 11-0-2 and 11-0-3. The urinary specific gravity was measured using a urine hydrometer (PAL-09S, Atago Co., Ltd., Tokyo, Japan).
# [2] = system: argininosuccinic acid; assay: Human clinical trial in CKD patients: argininosuccinic acid in plasma and early morning urine (LC-MS/MS); format: in vivo; design: key to Influence on concentration of ASA / Influence on ASA U/P ratio: Excellent effects: ◯; Poor effects: X; No significant difference: —; (◯): whether or not there is an effect of promoting excretion of indoxyl sulfate into the urine cannot be determined
# Experimental: as §1, §2
# Early morning urine and blood were collected before the start of administration, and 6 weeks, 12 weeks, and 24 weeks after the start of administration, and each specimen was stored at −80° C. Methods used in the present field for indoxyl sulfate, p-cresyl sulfate, phenylacetyl-L-glutamine, hippuric acid, and argininosuccinic acid in urine and blood (Sato, E., et. al., Metabolic alteration by indoxyl sulfate in skeletal muscle induce uremic sarcopenia in chronic kidney disease., Sci Rep. 2016 Nov. 10; 6:36618. doi: 10.1038/srep36618, and the like) were referred to, and quantitative analysis was performed using the following liquid chromatography triple quadrupole mass spectrometer (LC-MS/MS).
# For LC, NANOSPACE SI-2 (manufactured by Shiseido) was used, and […] MGM was selected as the analytical column.
# For MS, TSQ Quantiva (manufactured by Thermo Fisher Scientific Co., Ltd.) was used, and five compounds were ionized in the negative mode and detected using the Selected Reaction Monitoring method. The quantitative value was calculated using a calibration curve prepared with a standard solution of each compound.
# For statistical analysis, the Mann-Whitney test was used for comparison between groups, and the Wilcoxon test was used for comparison of changes over time. The Pearson test was used for correlation.
# Then, the average value and SD of each group were calculated for (i) to (ix) above. For each of (iv) to (ix) above, the average value and SD of each group were calculated for all data of 6 weeks, 12 weeks, and 24 weeks after the start of administration in each group.
# [3] = system: indoxyl sulfate; assay: Urine indoxyl sulfate (IS) corrected by urine osmotic pressure; format: in vivo, human
# Excerpt: Medical Examination, Vol. 44, No. 1, 1995, pages 79-83 by Tetsuo Aoki et al. was referred to. In addition, a urine osmotic pressure 770 mOsm/kg was converted into a reference value.
# Osmotic pressure correction value (unit/500 mOsm·P)=actual measurement value×500/osmotic pressure value
# [4] = 0 W, before the start of administration
# [5] = 6-24 W, all data of 6, 12 and 24 weeks
smiles,measurement,setting,value
"O=C([O-])O.[Na+] [Bicarbonate, sodium bicarbonate]",Urine Specific Gravity,"[1]; 0 W, before the start of the test",1.014 ± 0.007
same,Urine Specific Gravity,"[1]; 6-24 W, all data",1.014 ± 0.006
same,Urine Specific Gravity (% Relative value vs week 0),"[1]; 6-24 W, all data",100.00 ± 0.67%
same,"Urine Specific Gravity, difference vs week 0","[1]; 6-24 W, all data",0.0002 ± 0.0058^b
same,Urine Specific Gravity,[1]; 6 W,1.014 ± 0.006
same,Urine Specific Gravity (% Relative value vs week 0),[1]; 6 W,100.02 ± 0.53%
same,"Urine Specific Gravity, difference vs week 0",[1]; 6 W,0.0002 ± 0.0054
same,Urine Specific Gravity,[1]; 12 W,1.013 ± 0.005
same,Urine Specific Gravity (% Relative value vs week 0),[1]; 12 W,99.89 ± 0.58^e %
same,"Urine Specific Gravity, difference vs week 0",[1]; 12 W,−0.0012 ± 0.0058^e
same,Urine Specific Gravity,[1]; 24 W,1.016 ± 0.007
same,Urine Specific Gravity (% Relative value vs week 0),[1]; 24 W,100.17 ± 0.61%
same,"Urine Specific Gravity, difference vs week 0",[1]; 24 W,0.0017 ± 0.0062
same,urinary specific gravity value,"[1]; over 6, 12 and 24 weeks, compared with the control group",maintained or increased
same,Arginino Succinic Acid-Urine/Plasma ratio,[2]; [4],3.82 ± 4.93
same,Plasma Arginino Succinic Acid,[2]; [4],1178 ± 655 ng/mL
same,Urine Arginino Succinic Acid (early morning urine),[2]; [4],2911 ± 1691 ng/mL
same,"ASA - Urine/Plasma ratio, change from week 0",[2]; [5],1.15 ± 7.87
same,Arginino Succinic Acid-Urine/Plasma ratio,[2]; [5],4.97 ± 7.98
same,Plasma Arginino Succinic Acid,[2]; [5],1327 ± 1416 ng/mL
same,"Plasma Arginino Succinic Acid, change from week 0",[2]; [5],148.9 ± 1134 ng/mL
same,Urine Arginino Succinic Acid (early morning urine),[2]; [5],3071 ± 2386 ng/mL
same,"Urine Arginino Succinic Acid, change from week 0",[2]; [5],160.2 ± 1756 ng/mL
same,"ASA - Urine/Plasma ratio, change from week 0",[2]; 6 W,1.93 ± 7.90
same,Arginino Succinic Acid-Urine/Plasma ratio,[2]; 6 W,5.75 ± 9.80
same,Plasma Arginino Succinic Acid,[2]; 6 W,1245 ± 748 ng/mL
same,"Plasma Arginino Succinic Acid, change from week 0",[2]; 6 W,66.5 ± 565.5 ng/mL
same,Urine Arginino Succinic Acid (early morning urine),[2]; 6 W,3346 ± 2636 ng/mL
same,"Urine Arginino Succinic Acid, change from week 0",[2]; 6 W,434.7 ± 1299 ng/mL
same,effect of excretion of argininosuccinic acid from blood into urine,"[2]; 6 to 24 weeks, urine/plasma ratio",more strongly recognized
same,"ASA - Urine/Plasma ratio, change from week 0",[2]; 12 W,−1.01 ± 4.47
same,Arginino Succinic Acid-Urine/Plasma ratio,[2]; 12 W,2.81 ± 1.86
same,Plasma Arginino Succinic Acid,[2]; 12 W,1576 ± 2160 ng/mL
same,"Plasma Arginino Succinic Acid, change from week 0",[2]; 12 W,397.7 ± 1733 ng/mL
same,Urine Arginino Succinic Acid (early morning urine),[2]; 12 W,2647 ± 2123 ng/mL
same,"Urine Arginino Succinic Acid, change from week 0",[2]; 12 W,-264.1 ± 1491 ng/mL
same,"ASA - Urine/Plasma ratio, change from week 0",[2]; 24 W,2.54 ± 10.20^a
same,Arginino Succinic Acid-Urine/Plasma ratio,[2]; 24 W,6.36 ± 9.60
same,Plasma Arginino Succinic Acid,[2]; 24 W,1160 ± 977 ng/mL
same,"Plasma Arginino Succinic Acid, change from week 0",[2]; 24 W,-17.6 ± 776.9 ng/mL
same,Urine Arginino Succinic Acid (early morning urine),[2]; 24 W,3221 ± 2466 ng/mL
same,"Urine Arginino Succinic Acid, change from week 0",[2]; 24 W,309.9 ± 2335 ng/mL
same,Influence on concentration of ASA,"[2]; Plasma, comparison with Cont",—
same,Influence on concentration of ASA,"[2]; Plasma, comparison with reference drug",—
same,Influence on ASA U/P ratio,[2]; comparison with Cont,—
same,Influence on ASA U/P ratio,[2]; comparison with reference drug,—
same,Influence on concentration of ASA,"[2]; Urine, comparison with Cont",—
same,Influence on concentration of ASA,"[2]; Urine, comparison with reference drug",—
same,"Urine IS, osmotic pressure corrected",[3]; 0 W,87.9 ± 40.0 μg · mL^−1/770 mOsm · P
same,"Urine IS, osmotic pressure corrected","[3]; 6-24 W, all data",77.0 ± 42.5 μg · mL^−1/770 mOsm · P
same,"Urine IS, osmotic pressure corrected, % Relative value vs week 0","[3]; 6-24 W, all data",93 ± 49%
same,"Urine IS, osmotic pressure corrected",[3]; 6 W,82.9 ± 44.6 μg · mL^−1/770 mOsm · P
same,"Urine IS, osmotic pressure corrected, % Relative value vs week 0",[3]; 6 W,98 ± 30%
same,"Urine IS, osmotic pressure corrected, % Relative value vs week 0",[3]; 12 W,77 ± 39%
same,"Urine IS, osmotic pressure corrected",[3]; 24 W,84.4 ± 48.4 μg · mL^−1/770 mOsm · P
same,"Urine IS, osmotic pressure corrected, % Relative value vs week 0",[3]; 24 W,104 ± 68%
